# Results from US12042520B2 (SOLUVEG SA, priority 2015, dated 2024).
# Legend:
# [1] = Curcumin plasma concentration after intravenous administration in the pig (for comparison); type: in vivo; conditions: 0.60 grams for 23 kg
# [2] = piperine used with curcumin; cited from earlier work
Compound,Time for which the plasma concentration remains at a constant level [1],Time of plasma concentration peak [1],"concentration at 0 hours ([1]; plasma, 0.6 grams for 23 kg of live weight, 0 hours)","concentration at 3 hours ([1]; plasma, 0.6 grams for 23 kg of live weight, 3 hours)","concentration at 6 hours ([1]; plasma, 0.6 grams for 23 kg of live weight, 6 hours)","concentration at 9 hours ([1]; plasma, 0.6 grams for 23 kg of live weight, 9 hours)","concentration at 24 hours ([1]; plasma, 0.6 grams for 23 kg of live weight, 24 hours)","concentration at 48 hours ([1]; plasma, 0.6 grams for 23 kg of live weight, 48 hours)","concentration at 72 hours ([1]; plasma, 0.6 grams for 23 kg of live weight, 72 hours)",Effect in the intestine (in words) [2]
"COc1cc(/C=C/C(=O)CC(=O)/C=C/c2ccc(O)c(OC)c2)ccc1O [Curcumin, curcumin]",10 h,24 h,0 ng/mL,537 ng/mL,557 ng/mL,713 ng/mL,724 ng/mL,537 ng/mL,385 ng/mL,–
O=C(/C=C/C=C/c1ccc2c(c1)OCO2)N1CCCCC1 [piperine],–,–,–,–,–,–,–,–,–,irritating effect in the intestine
